O=C1C=CC(=O)O1
solubility (mole fraction)
Conditions	278.15 K	283.15 K	288.15 K	293.15 K	298.15 K	303.15 K	308.15 K	313.15 K	318.15 K	323.15 K
in DMF	0.0297	0.0372	0.0466	0.0584	0.0707	0.087	0.104	0.125	0.15	0.176
in acetic acid	0.0156	0.0216	0.0281	0.0369	0.0472	0.0605	0.0767	0.0962	0.119	0.146
in acetone	0.00999	0.0136	0.0191	0.0264	0.0336	0.0453	0.0599	0.0768	0.0977	0.124
in acetonitrile	0.012	0.0173	0.0232	0.0307	0.0408	0.0526	0.0682	0.0873	0.111	0.139
in ethyl acetate	0.00906	0.0125	0.017	0.0219	0.0303	0.0398	0.0518	0.0665	0.0857	0.107
in isopropanol	0.00617	0.00942	0.013	0.0178	0.0241	0.0321	0.043	0.0552	0.0712	0.0909
in methanol	0.0211	0.0282	0.0359	0.0465	0.0582	0.0719	0.0886	0.109	0.132	0.159
in n-butanol	0.00359	0.00539	0.00796	0.0116	0.0168	0.0236	0.033	0.0455	0.0618	0.0828

Reference: BigSolDB 2.1
